According to US10322188B2, “Cell-penetrating drug carrier and the application thereof” (National Central University, priority 2014, dated 2019):
One block for each compound: values may come before it. Ends that are not written are not given here.

Experiments:
HepG2 cells [1] = test: Cell viability of HepG2 cells incubated with peptide, DOX or a mixture for 1 hour and 6 hours; format: cell-based; settings: 25 µM peptide, 25 µM DOX or mixed solution of both; incubating for 1 hour and 6 hours; FIG. 1A
Experimental: In this example, HepG2 cells are individually incubated in 25 µM peptide solution, 25 µM DOX, and a mixed solution of 25 µM DOX and 25 µM peptide. And the cell viability of the mentioned HepG2 cells is followed after incubating for 1 hour and 6 hours.

HepG2 cells [2] = test: DOX fluorescence intensity in HepG2 cytoplasm (intracellular translocation); format: cell-based; settings: incubating time from 1 hour to 6 hours; FIG. 1B
Experimental: Besides, in order to ensure whether the cell-penetrating peptide is helpful to the translocation of DOX, after incubating for 1 to 6 hours, the DOX fluorescence intensity of in HepG2 tumor cell cytoplasm is measured and shown as FIG. 1B.
(§1) In this example, HepG2 cells are individually incubated in DOX, DOX and IL-R57F89 mixed solution, and IL-R57F89-DOX for 1 hour, and measured the fluorescence intensity as FIG. 3.

HepG2 cell = test: Cytotoxicity test on HepG2 cells, 24 hours; format: cell-based; settings: acted on HepG2 cell for 24 hour; FIG. 10
Experimental: as §1
DOX and PEG5K-GPLGI-P17-DOX are processed cytotoxicity test.

MMP-2 = molecular target: T1, MMP-2 (Homo sapiens, UniProt P08253); test: Digestion of recognizable sequence by MMP-2, followed by RPC / RP-HPLC; format: biochemical
T1 sequence (P08253 110-660): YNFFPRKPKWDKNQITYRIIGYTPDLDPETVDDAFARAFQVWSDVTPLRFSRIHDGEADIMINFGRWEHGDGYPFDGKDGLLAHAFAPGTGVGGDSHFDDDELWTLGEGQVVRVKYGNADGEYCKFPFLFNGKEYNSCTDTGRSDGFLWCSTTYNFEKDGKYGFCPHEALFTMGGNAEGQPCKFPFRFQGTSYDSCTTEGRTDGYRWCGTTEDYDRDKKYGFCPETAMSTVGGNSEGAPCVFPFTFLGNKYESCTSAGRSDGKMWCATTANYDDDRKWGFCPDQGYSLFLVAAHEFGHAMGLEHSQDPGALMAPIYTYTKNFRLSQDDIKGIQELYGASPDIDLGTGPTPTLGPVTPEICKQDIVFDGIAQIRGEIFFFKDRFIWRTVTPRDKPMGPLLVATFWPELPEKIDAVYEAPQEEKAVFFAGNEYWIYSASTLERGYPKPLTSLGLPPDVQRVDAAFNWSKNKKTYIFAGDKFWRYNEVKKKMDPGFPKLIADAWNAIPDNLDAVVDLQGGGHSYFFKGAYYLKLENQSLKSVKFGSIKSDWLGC
Experimental: In the experiment of employing MMP-2 to cut/digest recognizable sequence, after individually adding tryptophan (abbreviated symbol as “W”) at the C-terminus and the N-terminus of the recognizable sequence, the digestion of the recognizable sequence by MMP-2 can be followed by the character absorption wave length at 280 nm.
FIG. 4A to FIG. 4C respectively presents the reversed 1phase chromatography (RPC) analysis of 100 µM P1, P2, and P4 in Table 1 digested by 1 g/mL MMP-2. The gradient elution is 0-100% ACN, 50 min. […] Another recognizable sequence P4 with the same length as P3 and different amino acid fragments is designed.
The ILPW fragment from P4 digestion and the first four amino acid fragment of IL-R57F89 are the same. There are two MMP-2 cut-able sequences, GPLSI-P17 and GPLGI-P17, designed with the sequence individually as GPLS-ILPWRWRFFPWRR (SEQ ID NO: 11) and GPLG-ILPWRWRFFPWRR (SEQ ID NO: 10). The RP-HPLC analysis of GPLSI-P17 and GPLGI-P17 digested by MMP-2 are shown as FIG. 5A and FIG. 5B. It should be noticed that we ensure the peak of IL-R57F89 before the digestion of GPLSI-P17 and GPLGI-P17. […] Therefore, GPLSI-P17 and GPLGI-P17 can be employed as the recognizable sequence of this application.
Including providing protection to recognizable sequence-CPP, proper PEG length will not impact the anchoring of the target cell to the recognizable sequence. Therefore, we try to finger out the effect of the PEG length to the following anchoring. PEG5K-GPLSI-P17 and PEG5K-GPLGI-P17 are individually dissolved in pH 7.4 HEPES buffer. MMP-2 is added into the above solutions and the final concentration is about 1 g/mL. The solutions are independently reacted at 37° C. for 24 hours. The reaction results are analyzed by RPC and shown as FIG. 8A and FIG. 8B.

trypsin = test: Protease stability test: trypsin digestion followed by RPC-UV280; format: in vitro ADME
Text: It can be expected that drug carrier in vivo circulation will face to many bio-enzymes, wherein those bio-enzymes will cut the drug carrier. Before designing proper protection to those bio-enzymes, we hope to finger out the cutting result of the recognizable sequence-CPP (cell-penetrating peptide) by bio-enzymes. In this example, trypsin is employed as the bio-enzyme. Trypsin is a protease with selectivity, especially for cutting the carboxyl side of arginine (R) or lysine (K) of protein or peptide. In this example, when CPP is IL-R57F89, there are four arginine fragments in CPP being able to be cut by trypsin. Those four arginine fragments are R5, R7, R12, and R13.
FIG. 6A and FIG. 6B are respectively the RPC-UV280 spectra of IL-R57F89 and GPLSI-P17 digested by 0.1 g/mL trypsin. The gradient elution is 20-70% ACN, 5-30 min. In the spectra, there are sampling analysis results of 5, 10, 20, 30, 60, 120, and 240 min from top to bottom. […] According to this example, it can be noticed that it has to design a proper structure for keeping the recognizable sequence-CPP of drug carrier from cut by bio-enzyme(s) before the drug carrier achieving the target cell.
Subsequently, it is important to find out proper PEG length so that the PEG can provide protection to the recognizable sequence-CPP and the PEG will not impact the anchoring of the target cell to the recognizable sequence. FIG. 7B presents the trypsin digestion results of IL-R57F89, GPLSI-P17, PEG1K-GPLSI-P17, PEG2K-GPLSI-P17, PEG5K-GPLSI-P17, and PEG5K-GPLGI-P17. […] PEG1K-GPLSI-P17 is digested about 80% after 2 hours. After digesting for 4 hours, PEG2K-GPLSI-P17 and PEGSK-GPLSI-P17 are individually digested about 50% and 45%. It can be ensured that the PEG with proper length can efficiently keep the recognizable sequence-CPP from digested by bio-enzyme. And, when adjusting the PEG length with the length of the recognizable sequence-CPP, the protection of the PEG to the recognizable sequence-CPP can be optimized. For example, to those general recognizable sequence-CPP now, the proper length of PEG is about 1000-25000 Da.

[3] = after 24 hours, FIG. 4C, 5A, 5B
[4] = 0.1 g/mL trypsin, after 2 hours, FIG. 6A, 6B
[5] = 100 µM peptide, 1 g/mL MMP-2, after digesting for 2 hours, FIG. 4A, 4B

Compound: COc1cccc2c1C(=O)c1c(O)c3c(c(O)c1C2=O)C[C@@](O)(C(=O)CO)C[C@@H]3O[C@H]1C[C@H](N)[C@H](O)[C@H](C)O1 [DOX, doxorubicin]
cytotoxicity to HepG2 cell (cell viability) (HepG2 cells [1]): do not present obvious cytotoxicity | DOX fluorescence intensity in HepG2 tumor cell cytoplasm, change with incubating time (HepG2 cells [2]): increased | cell viability of HepG2 (HepG2 cell): efficiently decrease the cell viability

Compound: CC[C@H](C)[C@H](N)C(=O)N[C@@H](CC(C)C)C(=O)N1CCC[C@H]1C(=O)N[C@@H](Cc1c[nH]c2ccccc12)C(=O)N[C@@H](CCCCN)C(=O)N[C@@H](Cc1c[nH]c2ccccc12)C(=O)N1CCC[C@H]1C(=O)N[C@@H](Cc1c[nH]c2ccccc12)C(=O)N[C@@H](Cc1c[nH]c2ccccc12)C(=O)N1CCC[C@H]1C(=O)N[C@@H](Cc1c[nH]c2ccccc12)C(=O)N[C@@H](CCCNC(=N)N)C(=O)N[C@@H](CCCNC(=N)N)C(=O)O [IL, Indolicidin]
cytotoxicity to HepG2 cell (cell viability) (HepG2 cells [1]): do not present obvious cytotoxicity

Compound: ILPWRWRFFPWRR [IL-R57F89]
cytotoxicity to HepG2 cell (cell viability) (HepG2 cells [1]): do not present obvious cytotoxicity | digestion by trypsin (trypsin; [4]): almost digested completely | digestion by trypsin (trypsin; after about 1 hour, FIG. 7B): almost digested completely

Compound: P1: MMP-2 cut-able sequence WGPLGIAGQW
digestion by MMP-2 (MMP-2; [5]): still can be digested by MMP-2

Second part, the compound after the results:

digestion by MMP-2 (MMP-2; [3]): totally digested
Compound: GPLGI-P17: recognizable sequence-CPP GPLG-ILPWRWRFFPWRR (SEQ ID NO: 10) (GPLGILPWRWRFFPWRR; the sequence is synthesized)

digestion by trypsin (trypsin; [4]): almost digested completely | digestion by trypsin (trypsin; after about 1 hour, FIG. 7B): almost digested completely
Compound: GPLSILPWRWRFFPWRR [GPLSI-P17]

digestion by MMP-2 (MMP-2; [5]): totally digested
Compound: P2: MMP-2 cut-able sequence WGPLGIAGW

digestion by MMP-2 (MMP-2; [3]): totally digested
Compound: P4: MMP-2 cut-able sequence WGPLGILPW
